In US4962112A, “7-(2-methyl-4-aminopyrrolidinyl)naphthryidine and quinoline compounds” (Abbott Laboratories, priority 1988, dated 1990):
≈ marks a conversion by molar mass, not a printed value.

What was measured:
[1] = test system: PSEUDOMONAS CEPACIA; experiment: In vitro antibacterial activity, agar dilution MIC; assay type: cell-based; conditions: Burkholderia cepacia, 18 h; PSEUDOMONAS CEPACIA 296I
[2] = test system: ACINETOBACTER SP; experiment: In vitro antibacterial activity, agar dilution MIC; assay type: cell-based; conditions: 18 h; ACINETOBACTER SP CMX 669
[3] = Aqueous solubility in Ringer's buffer at pH 7.5 (HPLC); assay type: physicochemical
Protocol: A known excess weight of the compound was shaken overnight with a known volume of Ringer's buffer (bicarbonate buffer containing sodium, potassium, calcium and magnesium ions, initially adjusted to pH 7.5). The contents were filtered, and the clear filtrate was analyzed after appropriate dilution using HPLC (UV absorbance detection).

[4] = test system: S. agalactiae; experiment: In vitro antibacterial activity, agar dilution MIC; assay type: cell-based; conditions: Streptococcus agalactiae, 18 h; STR[…] 508 (Table 2)
[5] = test system: STAPHYLOCOCCUS EPIDERMIDIS; experiment: In vitro antibacterial activity, agar dilution MIC; assay type: cell-based; conditions: 18 h; STAPHYLOCOCCUS EPIDERMIDIS 3519
[6] = test system: E. coli; experiment: In vitro antibacterial activity, agar dilution MIC; assay type: cell-based; conditions: Escherichia coli, 18 h
Protocol: (§1) The in vitro antibacterial activity of the test compound was determined by conventional agar dilution procedures. The organisms were grown overnight in brain-heart infusion (BHI) broth (Difco 0037-01-6) at 36° C. Twofold dilutions of the stock solution ([…]) of the test compound were made in BHI agar obtain a test concentration ranging from […]. The plate was inoculated with approximately 10^4 organisms. It was then incubated at 36° C. for 18 h. the minimal inhibitory concentration was the lowest concentration of the test compound that yielded no visible growth on the plate.

[7] = test system: M[…]; experiment: In vitro antibacterial activity, agar dilution MIC; assay type: cell-based; conditions: Micrococcus luteus
Protocol: as §1

[8] = test system: EN[…]; experiment: In vitro antibacterial activity, agar dilution MIC; assay type: cell-based; conditions: Enterococcus faecium, ATCC8043, 18 h; EN[…] ATCC 8043
Protocol: as §1

[9] = test system: S. aureus; experiment: In vitro antibacterial activity, agar dilution MIC; assay type: cell-based; conditions: Staphylococcus aureus, 18 h
Protocol: as §1

[10] = test system: S. pyogenes; experiment: In vitro antibacterial activity, agar dilution MIC; assay type: cell-based; conditions: Streptococcus pyogenes, 18 h
[11] = Oral pharmacokinetics, blood level by disk agar diffusion bioassay; assay type: in vivo, Mice; conditions: for Blood Level of Compound: mice; for serum concentrations / blood levels (in words): versus analogs A and B at 100 mg/kg
Protocol: Mice were administered the quantity of compound indicated orally, as a single dose. At the specified time intervals, blood was collected from groups of five mice. All samples were assayed by a disk agar diffusion bioassay procedure. Bacillus subtilis 6633 or Klebsiella pneumoniae 10032 were used as the assay organisms, and seek agar medium No. 1 (BBL Microbiology Systems; Cockeysville, MD) was the growth medium. The plates were incubated at 32° C for 18 h and read with an image analyzer (Optomax Inc.).

[12] = test system: PROVIDENCIA STUARTII; experiment: In vitro antibacterial activity, agar dilution MIC; assay type: cell-based; conditions: 18 h
[13] = test system: STREPTOCOCCUS BOVIS; experiment: In vitro antibacterial activity, agar dilution MIC; assay type: cell-based; conditions: Streptococcus equinus, 18 h; STREPTOCOCCUS BOVIS A5196
[14] = test system: K. pneumoniae; experiment: In vitro antibacterial activity, agar dilution MIC; assay type: cell-based, Klebsiella pneumoniae; conditions: ATCC8045, 18 h; KLEBSIELLA PNEUMONIAE ATCC 8045; read-out: MIC
[15] = test system: P. aeruginosa; experiment: In vitro antibacterial activity, agar dilution MIC; assay type: cell-based; conditions: Pseudomonas aeruginosa, 18 h
[16] = compared with 2-unsubstituted aminopyrrolidine analogs
[17] = ATCC6538P, STAPHYLOCOCCUS AUREUS ATCC 6538P
[18] = STREPTOCOCCUS PYOGENES 930 CONST

| SMILES | MIC [1] | MIC [2] | MIC [4] | MIC [5] | MIC ([6]; ESCHERICHIA COLI DC-2) | MIC ([6]; ESCHERICHIA COLI H560) | MIC ([6]; ESCHERICHIA COLI JUHL) | MIC ([6]; ESCHERICHIA COLI KNK 437) | MIC ([6]; ESCHERICHIA COLI SS) | MIC ([7]; ATCC4698, 18 h, M[…] ATCC 4698) | MIC ([7]; ATCC9341, 18 h, M[…] ATCC 9341) | MIC [8] | MIC ([9]; STAPHYLOCOCCUS AUREUS 45) | MIC ([9]; STAPHYLOCOCCUS AUREUS 45RAR2) | MIC ([9]; STAPHYLOCOCCUS AUREUS A5177) | MIC ([9]; STAPHYLOCOCCUS AUREUS CMX 503A) | MIC ([9]; STAPHYLOCOCCUS AUREUS CMX 553) | MIC ([9]; STAPHYLOCOCCUS AUREUS CMX 6868) | MIC [9, 17] | MIC [10, 18] | also measured |
| --- | --- | --- | --- | --- | --- | --- | --- | --- | --- | --- | --- | --- | --- | --- | --- | --- | --- | --- | --- | --- | --- |
| C[C@H]1C[C@H](N)CN1c1cc2c(cc1F)c(=O)c(C(=O)O)cn2-c1ccc(F)cc1F [Example 6] | 12.5 µg/mL (≈ 29.9 µM) | 0.1 µg/mL (≈ 0.24 µM) | 0.1 µg/mL (≈ 0.24 µM) | 0.2 µg/mL (≈ 0.479 µM) | 0.2 µg/mL (≈ 0.479 µM) | 0.2 µg/mL (≈ 0.479 µM) | 0.05 µg/mL (≈ 0.12 µM) | 0.2 µg/mL (≈ 0.479 µM) | ≤ 0.002 µg/mL | 0.1 µg/mL (≈ 0.24 µM) | 0.2 µg/mL (≈ 0.479 µM) | 0.1 µg/mL (≈ 0.24 µM) | 0.1 µg/mL (≈ 0.24 µM) | 0.1 µg/mL (≈ 0.24 µM) | 0.2 µg/mL (≈ 0.479 µM) | 0.1 µg/mL (≈ 0.24 µM) | 0.1 µg/mL (≈ 0.24 µM) | 0.05 µg/mL (≈ 0.12 µM) | 0.02 µg/mL (≈ 0.0479 µM) | 0.2 µg/mL (≈ 0.479 µM) | AQUEOUS SOLUBILITY ([3]; at pH 7.5 in Ringer's buffer): 0.053 mg/mL; solubility properties (in words) [3, 16]: significantly improved aqueous solubility properties; MIC ([10]; STREPTOCOCCUS PYOGENES EE561): 0.2 µg/mL (≈ 0.479 µM); oral absorption properties (in words) [11, 16]: greatly improved oral absorption properties; Blood Level of Compound ([11]; oral 25 mg/kg, t = 0.5 h): 3700 ng/mL; Blood Level of Compound ([11]; oral 25 mg/kg, t = 1.0 h): 4300 ng/mL; Blood Level of Compound ([11]; oral 25 mg/kg, t = 2.0 h): 2800 ng/mL; Blood Level of Compound ([11]; oral 25 mg/kg, t = 3.0 h): 1100 ng/mL; Blood Level of Compound ([11]; oral 25 mg/kg, t = 6.0 h): 100 ng/mL; Blood Level of Compound ([11]; oral 25 mg/kg, t = 24.0 h): 0 ng/mL; serum concentrations / blood levels (in words) ([11]; oral 25 mg/kg): still achieve better blood; serum concentrations / blood levels (in words) ([11]; oral 25 mg/kg, listed as Compound 6): higher serum concentrations; MIC [12]: 1.56 µg/mL (≈ 3.74 µM); MIC [13]: 0.2 µg/mL (≈ 0.479 µM); MIC [14]: 0.02 µg/mL (≈ 0.0479 µM); MIC ([15]; PSEUDOMONAS AERUGINOSA A5007): 3.1 µg/mL (≈ 7.43 µM); MIC ([15]; PSEUDOMONAS AERUGINOSA BMH10): 0.78 µg/mL (≈ 1.87 µM); MIC ([15]; PSEUDOMONAS AERUGINOSA K799/61): 0.02 µg/mL (≈ 0.0479 µM); MIC ([15]; PSEUDOMONAS AERUGINOSA K799/WT): 0.39 µg/mL (≈ 0.934 µM) |
| NC1CCN(c2cc3c(cc2F)c(=O)c(C(=O)O)cn3-c2ccc(F)cc2F)C1 (stereo not shown) [Example B, 7-(3-Amino-pyrrolidin-1-yl)-1-(2,4-difluorophenyl)-1,4-dihydro-6-fluoro--oxo-quinoline-3-carboxylic acid, reference compound] | 6.2 µg/mL (≈ 15.4 µM) | 0.05 µg/mL (≈ 0.124 µM) | 0.2 µg/mL (≈ 0.496 µM) | 0.1 µg/mL (≈ 0.248 µM) | 0.2 µg/mL (≈ 0.496 µM) | 0.02 µg/mL (≈ 0.0496 µM) | 0.02 µg/mL (≈ 0.0496 µM) | 0.2 µg/mL (≈ 0.496 µM) | 0.002 µg/mL (≈ 0.00496 µM) | 0.78 µg/mL (≈ 1.93 µM) | 0.39 µg/mL (≈ 0.967 µM) | 0.2 µg/mL (≈ 0.496 µM) | 0.1 µg/mL (≈ 0.248 µM) | 0.1 µg/mL (≈ 0.248 µM) | 0.05 µg/mL (≈ 0.124 µM) | 0.05 µg/mL (≈ 0.124 µM) | 0.05 µg/mL (≈ 0.124 µM) | 0.05 µg/mL (≈ 0.124 µM) | 0.02 µg/mL (≈ 0.0496 µM) | 0.1 µg/mL (≈ 0.248 µM) | solubility ([3]; at pH 7.5 in Ringer's buffer): 8 µg/mL (≈ 19.8 µM); MIC ([10]; STREPTOCOCCUS PYOGENES EE561): 0.2 µg/mL (≈ 0.496 µM); Blood Level of Compound ([11]; oral 100 mg/kg, t = 1.0 h): 500 ng/mL; Blood Level of Compound ([11]; oral 100 mg/kg, t = 2.0 h): 700 ng/mL; Blood Level of Compound ([11]; oral 100 mg/kg, t = 3.0 h): 900 ng/mL; Blood Level of Compound ([11]; oral 100 mg/kg, t = 6.0 h): 700 ng/mL; Blood Level of Compound ([11]; oral 100 mg/kg, t = 24.0 h): 0 ng/mL; MIC [12]: 1.56 µg/mL (≈ 3.87 µM); MIC [13]: 0.39 µg/mL (≈ 0.967 µM); MIC [14]: 0.01 µg/mL (≈ 0.0248 µM); MIC ([15]; PSEUDOMONAS AERUGINOSA A5007): 0.2 µg/mL (≈ 0.496 µM); MIC ([15]; PSEUDOMONAS AERUGINOSA BMH10): 0.1 µg/mL (≈ 0.248 µM); MIC ([15]; PSEUDOMONAS AERUGINOSA K799/61): 0.05 µg/mL (≈ 0.124 µM); MIC ([15]; PSEUDOMONAS AERUGINOSA K799/WT): 0.2 µg/mL (≈ 0.496 µM) |
